Source: PubChem BioAssay (NCI)
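Step 1: Grow cells in 96-well plates. Step 2: Expose to compound for 48 hours at 5 concentrations. Step 3: Interpolate endpoints linearly; if unreached, use highest concentration. GI50 marks 50% less growth. TGI is the concentration that stops growth completely.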

Legend:
Experiment in all cases: NCI tumour cell line growth inhibition, 48 h
SW-620 colon = test system: SW-620 colon
RPMI-8226 leukemia = test system: RPMI-8226 leukemia
LOX IMVI melanoma = test system: LOX IMVI melanoma
COLO 205 colon = test system: COLO 205 colon
HT29 colon = test system: HT29 colon
SF-268 CNS = test system: SF-268 CNS
SK-MEL-2 melanoma = test system: SK-MEL-2 melanoma
KM12 colon = test system: KM12 colon
MALME-3M melanoma = test system: MALME-3M melanoma
NCI/ADR-RES ovarian = test system: NCI/ADR-RES ovarian

Compound | TGI (SW-620 colon) | TGI (RPMI-8226 leukemia) | TGI (LOX IMVI melanoma) | TGI (COLO 205 colon) | TGI (HT29 colon) | TGI (SF-268 CNS) | TGI (SK-MEL-2 melanoma) | TGI (KM12 colon) | TGI (MALME-3M melanoma) | GI50 (SW-620 colon) | GI50 (RPMI-8226 leukemia) | GI50 (COLO 205 colon) | GI50 (HT29 colon) | GI50 (SF-268 CNS) | GI50 (SK-MEL-2 melanoma) | GI50 (KM12 colon) | GI50 (NCI/ADR-RES ovarian) | TGI (NCI/ADR-RES ovarian) | GI50 (MALME-3M melanoma)
OCC(O)CNc1ccnc2cc(Cl)ccc12 (stereo not given) | > 100 µM | > 100 µM | > 100 µM | > 100 µM | > 100 µM | > 100 µM | > 100 µM | > 100 µM | > 100 µM |  |  |  |  |  |  |  |  |  | 
CCOC(=O)Cn1c(=O)n(C)c(=O)c2c1ncn2Cc1ccccc1 | > 100 µM | > 100 µM |  | > 100 µM | > 100 µM | > 100 µM | > 100 µM | > 100 µM | > 100 µM |  |  |  |  |  |  |  |  |  | 
COC1=C(Br)C(=O)c2nc(C)ccc2C1=O | 21.7 µM | > 22.6 µM | 24.3 µM | 24.6 µM | 34.9 µM | 33.1 µM | 30.1 µM | 31.7 µM | 30.5 µM |  |  |  |  |  |  |  |  |  | 
CC1CN1c1c(C(=O)/C=C/c2ccc(Cl)cc2)c(-c2ccccc2)nn(C)c1=O (stereo not given) | 6.81 µM |  | 4.17 µM | 3.67 µM | > 10 µM | > 10 µM | 5.8 µM | > 10 µM | > 10 µM |  |  |  |  |  |  |  |  |  | 
CC(C(=O)n1c2ccccc2c2ccccc21)N(c1ccccc1)c1ccccc1 (stereo not given) | 36 µM | 36.2 µM | 30.6 µM | 32 µM | 37.7 µM | 36.2 µM | 28.4 µM |  | 28.5 µM |  |  |  |  |  |  |  |  |  | 
COc1ccc2c3c(Nc4ccc(/C(C)=N/O)cc4)[nH]c4ccccc4c-3c(N=O)c2c1 | 2.85 µM | 5.14 µM |  | 34.9 µM | 33.7 µM | 34.9 µM | 40.6 µM | 4.39 µM | 27.6 µM | 1.36 µM | 2.52 µM | 19.5 µM | 19.6 µM | 1.07 µM | 18.4 µM | 1.13 µM | 5.78 µM | 20.2 µM | 6.31 µM
COC(=O)/C(=C\c1ccc(N(CCC#N)CCC#N)cc1)NC(=O)c1cc([N+](=O)[O-])ccc1Cl | > 100 µM | > 100 µM | > 100 µM | > 100 µM | > 100 µM | > 100 µM | > 100 µM | > 100 µM | > 100 µM |  |  |  |  |  |  |  |  |  | 
OCCNCCOc1ccc(/C(=C(/Cl)c2ccccc2)c2ccccc2)cc1 | 17.3 µM | 17.3 µM | 16.6 µM | 22.8 µM | 10 µM |  | 26.4 µM | 13.5 µM |  |  |  |  |  |  |  |  |  |  | 
COc1cc(C(=O)N2CCc3c([nH]c4c([N+](=O)[O-])c(OC)ccc34)C2C)cc(OC)c1OC (stereo not given) | > 100 µM | > 100 µM | > 100 µM | > 100 µM | > 100 µM | > 100 µM | > 100 µM | > 100 µM |  |  |  |  |  |  |  |  |  |  | 
CC1=C(c2cc(C(=O)Nc3ccc(Cl)cc3)nc(=S)[nH]2)Sc2ccccc2N1 | > 100 µM |  | > 100 µM | > 100 µM | > 100 µM | > 100 µM | > 100 µM | > 100 µM | > 100 µM |  |  |  |  |  |  |  |  |  | 
CC[C@@]1(O)C(=O)OCc2c1cc1n(c2=O)Cc2c-1nc1cc(F)c(C)c3c1c2[C@@H](N)CC3 | > 100 µM | 1.58 µM |  | 0.837 µM | > 100 µM | 2.17 µM | 1.4 µM | 24.7 µM | 0.281 µM | < 0.01 µM | 0.0109 µM | 0.0265 µM | < 0.01 µM | < 0.01 µM | 0.138 µM | 0.0203 µM | < 0.01 µM | > 100 µM | < 0.014 µM
